The target in assay [1] is bacterial lysine riboswitches. Particulars: in vitro, Sudarsan et al. (2003), cited from earlier work.
The subject of assay [2] is CP4. The assay is described as follows: CP4 expression in stably transformed maize callus carrying a theophylline "off" "trans" riboswitch. The following applies: transformed cells treated with theophylline. The assay is classed as cell-based. The text has this: "trans" riboswitches, similarly to the "cis" riboswitches described in Examples […], are useful in regulating transgenes. In a specific example, a transgenic plant including a "trans" riboswitch designed to regulate the glyphosate-resistance transgene CP4 as the target sequence is particularly useful in "trans" riboswitch-controlled applications parallel to that described in Example 23 (glyphosate as a ligand for ligand-activated herbicide resistance, or for control of herbicide resistant volunteers) and Example 24 (glyphosate as a chemical hybridization agent). To illustrate this approach, CP4 expression is suppressed in stably transformed maize callus. A modified transcribable DNA encoding an "off' "trans" riboswitch with theophylline as its ligand (Bayer and Smolke (2005) Nature Biotechnol., 23:337-343) is designed to target CP4 as a target sequence. Transcription of the theophylline riboswitch can be driven either by a pol II promoter (e. g., Figure 27A) or by pol III promoter (e. g., Figure 27B). The transcribable DNA is inserted into a binary vector (Figure 30) and co-transformed into maize callus under nptIII selection, generating stably transformed maize callus lines. CP4 expression is assayed in the transformed cells, where CP4 expression is observed to be suppressed in transformed cells that are treated with theophylline.

In assay [3] the test system is LKR/SDH. The assay is described as follows: LKR/SDH expression in transformed maize cells carrying a theophylline "off" "trans" riboswitch. The class given is cell-based. Particulars: transformed cells treated with theophylline. Here is the method:
Similarly, a "trans" riboswitch is used to control expression of an endogenous target sequence (lysine ketoglutarate reductase/saccharopine dehydrogenase gene, LKR/SDH) in stably transformed maize plants. A modified transcribable DNA encoding an "off' "trans" riboswitch with theophylline as its ligand (Bayer and Smolke (2005) Nature Biotechnol., 23:337-343) is designed to target at least one region of the LKR/SDH sequence, and co-transformed into maize callus. LKR/SDH expression is assayed in the resulting transformed cells, where LKR/SDH expression is observed to be suppressed in transformed cells that are treated with theophylline.

Like-named read-outs stand apart in the source and are kept apart here.

Take `NCCCC[C@H](N)C(=O)O` [lysine]: the Kd in assay [1] (read-out: Kd) is ~1000 µM; in assay [1] (same value given in ppm), ~128 ppm.

Consider `Cn1c(=O)c2[nH]cnc2n(C)c1=O` [theophylline], for which the CP4 expression result in assay [2] is “suppressed”. Besides, the LKR/SDH expression entry in assay [3] was “suppressed”.

The values are drawn from patent EP2765189A1, “Recombinant DNA constructs and methods for controlling gene expression” (Monsanto Technology LLC, priority 2004, dated 2006).
